Experimental data: patent publication US11572369B2, “Bicyclic pyridine compositions and methods of using the same for cancer therapy” (UNIVERSITY OF SOUTH CAROLINA, priority 2019, dated 2023)

Columns and labels:
Assay in all cases: KINOMEscan
Type in all cases: binding
Conditions in all cases: 2000 nM
ABL1-nonphosphorylated = ABL1-nonphosphorylated (Homo sapiens, UniProt P00519)
CDK2 = molecular target: T1, CDK2 (Homo sapiens, UniProt P24941)
T1 construct: purchased DiscoverX (KINOMEscan service)

CDK7 = molecular target: T2, CDK7 (Homo sapiens, UniProt P50613)
T2 construct: purchased DiscoverX (KINOMEscan service)

CDKL5 = molecular target: T3, CDKL5 (Homo sapiens, UniProt O76039)
T3 construct: DNA label (for qPCR read-out); purchased DiscoveRx (KINOMEscan scanMAX service)

CHEK2 = molecular target: T4, CHEK2 (Homo sapiens, UniProt O96017)
T4 construct: DNA label (for qPCR read-out); purchased DiscoveRx (KINOMEscan scanMAX service)

CLK1 = molecular target: T5, CLK1 (Homo sapiens, UniProt P49759)
T5 construct: DNA label (for qPCR read-out); purchased DiscoveRx (KINOMEscan scanMAX service)

CSK = molecular target: T6, CSK (Homo sapiens, UniProt P41240)
T6 construct: DNA label; purchased DiscoveRx (KINOMEscan scanMAX panel)

DAPK1 = molecular target: T7, DAPK1 (Homo sapiens, UniProt P53355)
T7 construct: DNA label; purchased DiscoveRx (KINOMEscan scanMAX panel)

DDR2 = molecular target: T8, DDR2 (Homo sapiens, UniProt Q16832)
T8 construct: DNA label (qPCR read-out); purchased KINOMEscan (DiscoveRx) panel

DMPK2 = molecular target: T9, DMPK2 (Homo sapiens, UniProt Q6DT37)
T9 construct: DNA label (qPCR read-out); purchased KINOMEscan (DiscoveRx) panel

DRAK2 = molecular target: T10, DRAK2 (Homo sapiens, UniProt O94768)
T10 construct: DNA label (qPCR read-out); purchased KINOMEscan (DiscoveRx) panel
T10 sequence (O94768 whole entry): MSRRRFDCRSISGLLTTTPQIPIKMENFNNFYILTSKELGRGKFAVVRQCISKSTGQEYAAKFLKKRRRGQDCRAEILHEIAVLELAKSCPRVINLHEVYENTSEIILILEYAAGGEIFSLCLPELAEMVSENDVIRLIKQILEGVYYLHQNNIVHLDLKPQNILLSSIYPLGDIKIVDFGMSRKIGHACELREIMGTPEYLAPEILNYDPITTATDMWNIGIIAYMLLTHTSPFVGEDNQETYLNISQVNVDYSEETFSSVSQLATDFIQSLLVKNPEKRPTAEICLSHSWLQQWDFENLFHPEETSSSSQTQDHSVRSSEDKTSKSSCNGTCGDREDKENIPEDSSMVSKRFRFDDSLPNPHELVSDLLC

EGFR(L858R) = molecular target: T11, EGFR(L858R) (Homo sapiens, UniProt P00533, L858R)
T11 construct: purchased DiscoveRx (KINOMEscan scanMAX panel)

EGFR(T790M) = molecular target: T12, EGFR(T790M) (Homo sapiens, UniProt P00533, T790M)
T12 construct: purchased DiscoveRx (KINOMEscan scanMAX panel)

EPHA8 = molecular target: T13, EPHA8 (Homo sapiens, UniProt P29322)
T13 construct: purchased DiscoveRx (KINOMEscan scanMAX panel)

ERK2 = molecular target: T14, ERK2 (Homo sapiens, UniProt P28482)
T14 construct: DNA label (qPCR read-out); purchased DiscoveRx (KINOMEscan ScanMAX panel)

FES = molecular target: T15, FES (Homo sapiens, UniProt P07332)
T15 construct: purchased DiscoveRx (KINOMEscan scanMAX panel)

FGFR3(G697C) = molecular target: T16, FGFR3(G697C) (Homo sapiens, UniProt P22607, G697C)
T16 construct: purchased DiscoveRx (KINOMEscan scanMAX panel)

FLT1 = molecular target: T17, FLT1 (Homo sapiens, UniProt P17948)
T17 construct: purchased DiscoveRx (KINOMEscan scanMAX panel)

FLT3(N841I) = molecular target: T18, FLT3(N841I) (Homo sapiens, UniProt P36888, N841I)
T18 construct: purchased KINOMEscan (DiscoveRx)

FRK = molecular target: T19, FRK (Homo sapiens, UniProt P42685)
T19 construct: purchased KINOMEscan (DiscoveRx)

KIT (D816H) = molecular target: T20, KIT (D816H) (Homo sapiens, UniProt P10721, D816H)
T20 construct: DNA label (for qPCR read-out); purchased DiscoveRx (KINOMEscan scanMAX panel)
T20 sequence (P10721 26-976 D816H): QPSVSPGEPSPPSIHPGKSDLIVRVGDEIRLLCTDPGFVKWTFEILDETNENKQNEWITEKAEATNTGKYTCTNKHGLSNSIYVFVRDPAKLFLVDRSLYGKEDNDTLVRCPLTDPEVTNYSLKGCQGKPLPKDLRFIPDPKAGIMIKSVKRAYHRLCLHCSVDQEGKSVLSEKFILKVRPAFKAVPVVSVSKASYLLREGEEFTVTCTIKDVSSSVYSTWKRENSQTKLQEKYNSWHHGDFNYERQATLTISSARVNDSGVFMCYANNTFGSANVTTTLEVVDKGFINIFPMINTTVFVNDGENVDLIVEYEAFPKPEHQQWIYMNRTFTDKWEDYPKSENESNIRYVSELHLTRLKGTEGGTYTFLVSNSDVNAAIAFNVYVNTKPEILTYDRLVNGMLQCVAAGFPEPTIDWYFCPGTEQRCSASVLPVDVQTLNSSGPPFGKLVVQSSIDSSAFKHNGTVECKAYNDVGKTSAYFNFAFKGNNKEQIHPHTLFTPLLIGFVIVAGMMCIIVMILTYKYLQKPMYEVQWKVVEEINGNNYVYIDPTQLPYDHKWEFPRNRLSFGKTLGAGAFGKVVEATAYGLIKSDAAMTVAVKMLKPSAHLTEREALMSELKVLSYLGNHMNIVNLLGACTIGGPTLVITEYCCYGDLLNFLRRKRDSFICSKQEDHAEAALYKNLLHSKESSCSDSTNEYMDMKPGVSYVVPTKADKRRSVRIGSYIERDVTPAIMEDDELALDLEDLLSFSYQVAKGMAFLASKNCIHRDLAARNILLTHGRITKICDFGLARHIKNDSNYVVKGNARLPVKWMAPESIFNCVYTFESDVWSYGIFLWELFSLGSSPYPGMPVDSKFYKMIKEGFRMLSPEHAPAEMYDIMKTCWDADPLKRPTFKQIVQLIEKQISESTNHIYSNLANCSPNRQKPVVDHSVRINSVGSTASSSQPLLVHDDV

LCK = molecular target: T21, LCK (Homo sapiens, UniProt P06239)
T21 construct: purchased KINOMEscan (DiscoveRx) panel service

MAP3K1 = molecular target: T22, MAP3K1 (Homo sapiens, UniProt Q13233)
T22 construct: DNA label (qPCR read-out); purchased DiscoverX (KINOMEscan service)

MARK4 = molecular target: T23, MARK4 (Homo sapiens, UniProt Q96L34)
T23 construct: purchased DiscoveRx (KINOMEscan scanMAX panel, service)
T23 sequence (Q96L34 whole entry): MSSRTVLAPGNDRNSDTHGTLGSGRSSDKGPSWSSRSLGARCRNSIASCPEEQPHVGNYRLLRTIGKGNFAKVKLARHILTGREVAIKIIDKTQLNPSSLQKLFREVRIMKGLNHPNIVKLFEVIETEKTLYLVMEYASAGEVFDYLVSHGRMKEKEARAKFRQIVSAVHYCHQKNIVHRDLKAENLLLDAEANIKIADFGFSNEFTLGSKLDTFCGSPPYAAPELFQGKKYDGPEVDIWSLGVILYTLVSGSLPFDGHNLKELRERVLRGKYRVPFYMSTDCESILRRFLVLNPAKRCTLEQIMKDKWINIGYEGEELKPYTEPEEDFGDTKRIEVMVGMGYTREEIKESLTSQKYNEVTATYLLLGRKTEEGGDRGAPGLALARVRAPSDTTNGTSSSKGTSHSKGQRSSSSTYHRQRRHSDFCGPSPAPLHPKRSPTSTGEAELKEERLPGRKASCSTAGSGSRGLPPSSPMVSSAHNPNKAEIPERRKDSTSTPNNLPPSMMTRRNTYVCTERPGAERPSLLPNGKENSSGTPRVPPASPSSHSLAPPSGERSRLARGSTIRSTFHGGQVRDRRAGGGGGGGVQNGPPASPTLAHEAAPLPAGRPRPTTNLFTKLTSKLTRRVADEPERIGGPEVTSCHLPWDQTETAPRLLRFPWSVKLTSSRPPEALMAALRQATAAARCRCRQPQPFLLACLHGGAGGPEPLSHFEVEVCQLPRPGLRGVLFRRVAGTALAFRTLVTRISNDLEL

NEK6 = molecular target: T24, NEK6 (Homo sapiens, UniProt Q9HC98)
T24 construct: DNA label (qPCR read-out); purchased KINOMEscan (ScanMAX panel service)

PCTK1 = molecular target: T25, PCTK1 (Homo sapiens, UniProt Q00536)
T25 construct: purchased DiscoverX (KINOMEscan service)

PDGFRA = molecular target: T26, PDGFRA (Homo sapiens, UniProt P16234)
T26 construct: DNA label (for qPCR read-out); purchased DiscoveRx (KINOMEscan scanMAX service)

PFTAIRE2 = molecular target: T27, PFTAIRE2 (Homo sapiens, UniProt Q96Q40)
T27 construct: DNA label (for qPCR read-out); purchased DiscoveRx (KINOMEscan scanMAX service)

PIK4CB = molecular target: T28, PIK4CB (Homo sapiens, UniProt Q9UBF8)
T28 construct: DNA label; purchased DiscoveRx (KINOMEscan scanMAX panel)
T28 sequence (Q9UBF8 whole entry): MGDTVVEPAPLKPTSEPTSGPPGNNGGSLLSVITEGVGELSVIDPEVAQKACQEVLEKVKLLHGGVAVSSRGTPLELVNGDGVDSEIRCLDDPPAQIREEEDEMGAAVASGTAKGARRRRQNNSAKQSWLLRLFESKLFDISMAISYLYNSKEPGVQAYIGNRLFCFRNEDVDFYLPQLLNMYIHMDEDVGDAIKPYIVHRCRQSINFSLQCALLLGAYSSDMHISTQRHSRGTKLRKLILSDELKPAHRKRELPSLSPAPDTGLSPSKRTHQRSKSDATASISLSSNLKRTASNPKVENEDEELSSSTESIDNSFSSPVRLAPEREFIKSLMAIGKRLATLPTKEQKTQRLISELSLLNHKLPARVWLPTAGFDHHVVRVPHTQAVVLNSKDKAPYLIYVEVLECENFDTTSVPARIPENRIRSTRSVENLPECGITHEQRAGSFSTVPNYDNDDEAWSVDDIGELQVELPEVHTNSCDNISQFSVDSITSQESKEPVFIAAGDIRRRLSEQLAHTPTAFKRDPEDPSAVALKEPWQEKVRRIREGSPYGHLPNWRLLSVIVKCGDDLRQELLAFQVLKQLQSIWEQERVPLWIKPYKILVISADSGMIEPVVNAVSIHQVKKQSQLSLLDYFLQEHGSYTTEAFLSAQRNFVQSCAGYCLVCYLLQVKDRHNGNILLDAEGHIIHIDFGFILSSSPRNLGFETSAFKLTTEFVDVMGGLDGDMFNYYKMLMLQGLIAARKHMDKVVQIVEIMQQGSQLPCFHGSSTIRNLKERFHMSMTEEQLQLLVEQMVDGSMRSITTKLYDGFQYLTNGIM

PIP5K1A = molecular target: T29, PIP5K1A (Homo sapiens, UniProt Q99755)
T29 construct: DNA label (qPCR read-out); purchased KINOMEscan (DiscoveRx) panel

PKAC-beta = molecular target: T30, PKAC-beta (Homo sapiens, UniProt P22694)
T30 construct: DNA label (qPCR read-out); purchased KINOMEscan (DiscoveRx) panel

PKMYT1 = molecular target: T31, PKMYT1 (Homo sapiens, UniProt Q99640)
T31 construct: DNA label (qPCR read-out); purchased KINOMEscan (DiscoveRx) panel
T31 sequence (Q99640 whole entry): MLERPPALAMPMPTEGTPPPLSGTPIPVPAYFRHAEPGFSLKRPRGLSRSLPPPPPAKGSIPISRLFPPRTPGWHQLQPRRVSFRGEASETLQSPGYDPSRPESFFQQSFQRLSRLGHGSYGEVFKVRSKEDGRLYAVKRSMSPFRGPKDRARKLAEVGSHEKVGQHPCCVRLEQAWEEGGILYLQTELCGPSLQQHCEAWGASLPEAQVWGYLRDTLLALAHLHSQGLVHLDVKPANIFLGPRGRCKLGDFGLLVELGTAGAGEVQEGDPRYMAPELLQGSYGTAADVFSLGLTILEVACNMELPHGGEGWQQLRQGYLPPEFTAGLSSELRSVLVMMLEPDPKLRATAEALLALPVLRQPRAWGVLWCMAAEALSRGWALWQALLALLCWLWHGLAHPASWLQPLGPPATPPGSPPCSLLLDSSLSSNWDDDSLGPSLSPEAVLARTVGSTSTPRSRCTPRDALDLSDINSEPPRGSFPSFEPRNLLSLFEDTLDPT

PRKD1 = molecular target: T32, PRKD1 (Homo sapiens, UniProt Q15139)
T32 construct: purchased DiscoveRx (KINOMEscan scanMAX panel)

RET(V804L) = molecular target: T33, RET(V804L) (Homo sapiens, UniProt P07949, V804L)
T33 construct: purchased DiscoveRx (KINOMEscan scanMAX panel)
T33 sequence (P07949 29-1114 V804L): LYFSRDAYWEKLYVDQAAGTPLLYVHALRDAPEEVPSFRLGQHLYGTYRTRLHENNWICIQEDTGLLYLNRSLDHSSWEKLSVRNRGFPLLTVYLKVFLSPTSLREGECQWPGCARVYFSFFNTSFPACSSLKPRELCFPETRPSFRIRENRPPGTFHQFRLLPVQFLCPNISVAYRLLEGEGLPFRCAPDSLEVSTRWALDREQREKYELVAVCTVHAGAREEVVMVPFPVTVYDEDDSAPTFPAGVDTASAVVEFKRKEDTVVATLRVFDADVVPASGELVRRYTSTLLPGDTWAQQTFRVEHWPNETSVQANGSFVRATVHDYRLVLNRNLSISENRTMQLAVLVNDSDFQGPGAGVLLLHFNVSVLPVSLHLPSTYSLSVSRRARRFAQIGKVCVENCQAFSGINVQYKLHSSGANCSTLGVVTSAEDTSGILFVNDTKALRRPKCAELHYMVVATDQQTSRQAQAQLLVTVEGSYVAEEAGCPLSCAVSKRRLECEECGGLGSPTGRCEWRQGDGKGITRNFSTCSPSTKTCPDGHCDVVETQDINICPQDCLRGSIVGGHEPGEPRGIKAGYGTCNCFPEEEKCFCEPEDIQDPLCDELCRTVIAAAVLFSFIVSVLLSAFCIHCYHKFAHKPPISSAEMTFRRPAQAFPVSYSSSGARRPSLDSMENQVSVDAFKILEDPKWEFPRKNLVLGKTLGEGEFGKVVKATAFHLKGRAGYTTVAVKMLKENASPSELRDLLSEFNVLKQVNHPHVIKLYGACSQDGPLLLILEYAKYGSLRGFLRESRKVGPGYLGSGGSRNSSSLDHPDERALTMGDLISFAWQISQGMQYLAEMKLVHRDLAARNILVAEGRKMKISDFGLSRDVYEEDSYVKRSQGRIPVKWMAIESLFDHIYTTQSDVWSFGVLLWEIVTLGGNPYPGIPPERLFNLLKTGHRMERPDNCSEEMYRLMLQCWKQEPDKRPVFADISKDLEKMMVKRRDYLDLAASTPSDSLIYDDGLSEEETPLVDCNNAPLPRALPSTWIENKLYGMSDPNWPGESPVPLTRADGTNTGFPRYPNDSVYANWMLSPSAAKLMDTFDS

RIPK2 = molecular target: T34, RIPK2 (Homo sapiens, UniProt O43353)
T34 construct: DNA label (qPCR read-out); purchased DiscoveRx (KINOMEscan ScanMAX panel)
T34 sequence (O43353 whole entry): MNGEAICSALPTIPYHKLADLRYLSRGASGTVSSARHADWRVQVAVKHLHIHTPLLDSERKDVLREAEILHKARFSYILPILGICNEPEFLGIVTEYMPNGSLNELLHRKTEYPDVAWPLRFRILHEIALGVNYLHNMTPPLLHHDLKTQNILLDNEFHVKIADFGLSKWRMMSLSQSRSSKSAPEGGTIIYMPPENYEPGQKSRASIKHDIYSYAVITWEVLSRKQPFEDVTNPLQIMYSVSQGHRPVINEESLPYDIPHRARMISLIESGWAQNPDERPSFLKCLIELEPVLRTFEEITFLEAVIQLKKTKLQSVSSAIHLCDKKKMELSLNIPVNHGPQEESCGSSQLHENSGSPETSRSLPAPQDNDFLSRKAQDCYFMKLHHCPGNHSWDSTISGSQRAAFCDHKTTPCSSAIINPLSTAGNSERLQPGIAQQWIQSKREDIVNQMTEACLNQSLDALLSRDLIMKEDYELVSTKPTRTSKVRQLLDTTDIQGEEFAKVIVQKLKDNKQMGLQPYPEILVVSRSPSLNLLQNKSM

TGFBR2 = molecular target: T35, TGFBR2 (Homo sapiens, UniProt P37173)
T35 construct: DNA label (qPCR read-out); purchased KINOMEscan (DiscoveRx) ScanMAX panel

YANK1 = molecular target: T36, YANK1 (Homo sapiens, UniProt Q8WU08)
T36 construct: purchased KINOMEscan (DiscoveRx) panel service

Row | SMILES | % Ctrl (ABL1-nonphosphorylated) | % Ctrl (CDK2) | % Ctrl (CDK7) | % Ctrl (CDKL5) | % Ctrl (CHEK2) | % Ctrl (CLK1) | % Ctrl (CSK) | % Ctrl (DAPK1) | % Ctrl (DDR2) | % Ctrl (DMPK2) | % Ctrl (DRAK2) | % Ctrl (EGFR(L858R)) | % Ctrl (EGFR(T790M)) | % Ctrl (EPHA8) | % Ctrl (ERK2) | % Ctrl (FES) | % Ctrl (FGFR3(G697C)) | % Ctrl (FLT1) | % Ctrl (FLT3(N841I)) | % Ctrl (FRK) | further results
1 | [2H]C([2H])([2H])N(C(=O)c1ccc(N2CCCN(c3ccnc4sc(C(N)=O)c(N)c34)CC2)cc1)C([2H])([2H])[2H] [15u_D6, 3-amino-4-(4-(4-(bis(methyl-d3)carbamoyl)phenyl)-1,4-diazepan-1-yl)thieno[2,3-b]pyridine-2-carboxamide] | 78 % Ctrl | 99 % Ctrl | 78 % Ctrl | 84 % Ctrl | 92 % Ctrl | 68 % Ctrl | 92 % Ctrl | 88 % Ctrl | 52 % Ctrl | 94 % Ctrl | 87 % Ctrl | 93 % Ctrl | 87 % Ctrl | 83 % Ctrl | 92 % Ctrl | 100 % Ctrl | 100 % Ctrl | 100 % Ctrl | 86 % Ctrl | 97 % Ctrl | % Ctrl (KIT (D816H)): 66 % Ctrl; % Ctrl (LCK): 100 % Ctrl; % Ctrl (MAP3K1): 90 % Ctrl; % Ctrl (MARK4): 98 % Ctrl; % Ctrl (NEK6): 100 % Ctrl; % Ctrl (PCTK1): 64 % Ctrl; % Ctrl (PDGFRA): 65 % Ctrl; % Ctrl (PFTAIRE2): 80 % Ctrl; % Ctrl (PIK4CB): 33 % Ctrl; % Ctrl (PIP5K1A): 100 % Ctrl; % Ctrl (PKAC-beta): 100 % Ctrl; % Ctrl (PKMYT1): 94 % Ctrl; % Ctrl (PRKD1): 92 % Ctrl; % Ctrl (RET(V804L)): 100 % Ctrl; % Ctrl (RIPK2): 93 % Ctrl; % Ctrl (TGFBR2): 100 % Ctrl; % Ctrl (YANK1): 97 % Ctrl
2 | CN(C)C(=O)c1ccc(N2CCCN(c3ccnc4sc(C(N)=O)c(N)c34)CC2)cc1 [15u, 3-amino-4-(4-(4-(dimethylcarbamoyl)phenyl)-1,4-diazepan-1-yl)thieno[2,3-b]pyridine-2-carboxamide] | 95 % Ctrl | 100 % Ctrl | 100 % Ctrl | 100 % Ctrl | 92 % Ctrl | 88 % Ctrl | 86 % Ctrl | 92 % Ctrl | 80 % Ctrl | 93 % Ctrl | 100 % Ctrl | 99 % Ctrl | 98 % Ctrl | 94 % Ctrl | 78 % Ctrl | 100 % Ctrl | 95 % Ctrl | 100 % Ctrl | 90 % Ctrl | 100 % Ctrl | % Ctrl (KIT (D816H)): 91 % Ctrl; % Ctrl (LCK): 91 % Ctrl; % Ctrl (MAP3K1): 84 % Ctrl; % Ctrl (MARK4): 100 % Ctrl; % Ctrl (NEK6): 92 % Ctrl; % Ctrl (PCTK1): 92 % Ctrl; % Ctrl (PDGFRA): 70 % Ctrl; % Ctrl (PFTAIRE2): 100 % Ctrl; % Ctrl (PIK4CB): 65 % Ctrl; % Ctrl (PIP5K1A): 100 % Ctrl; % Ctrl (PKAC-beta): 83 % Ctrl; % Ctrl (PKMYT1): 91 % Ctrl; % Ctrl (PRKD1): 88 % Ctrl; % Ctrl (RET(V804L)): 100 % Ctrl; % Ctrl (RIPK2): 100 % Ctrl; % Ctrl (TGFBR2): 100 % Ctrl; % Ctrl (YANK1): 89 % Ctrl
